Laboratory results from PubChem BioAssay (NCI).
Values joined by “and” are separate entries in the source; they are usually repeats but may differ in a detail not shown here. Equal entries are not always repeated.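 Method: 48-hour compound exposure of cells in 96-well plates, five concentrations, linear interpolation of endpoints. Here, GI50 denotes the concentration required for 50% inhibition of growth. TGI is the concentration that stops growth completely.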

Columns and labels:
Assay in all cases: inhibition of tumour cell growth, NCI panel, 48 h
[1] = system: BT-549 breast
[2] = system: SK-MEL-5 melanoma
[3] = system: NCI-H460 lung
[4] = system: HT29 colon
[5] = system: SNB-19 CNS
[6] = system: SF-295 CNS
[7] = system: HL-60(TB) leukemia
[8] = system: CAKI-1 renal
[9] = system: RPMI-8226 leukemia
[10] = system: SR leukemia

Compound | GI50 [1] | TGI [1] | GI50 [2] | TGI [2] | GI50 [3] | TGI [3] | GI50 [4] | TGI [4] | GI50 [5] | TGI [5] | GI50 [6] | TGI [6] | GI50 [7] | TGI [7] | GI50 [8] | TGI [8] | TGI [9] | TGI [10] | GI50 [9] | GI50 [10]
C=C1C(=O)O[C@H]2[C@H]1CC/C(COC(=O)/C=C\C(=O)NCc1ccc(Cn3c(=O)sn(CCI)c3=O)cc1)=C\CC[C@@]1(C)O[C@@H]21 | 10.7 µM | 22.6 µM | 12.8 µM | 25.7 µM | 15.5 µM | 37.9 µM | 2.26 µM | 4.92 µM | 11.4 µM | 24.7 µM | 18.9 µM | 33.4 µM | 1.59 µM | 5.41 µM | 1.66 µM | 3.03 µM |  |  |  | 
C(=C\C(Sc1ccccc1)c1ccccc1)/NNC1=NC(c2ccccc2)C(c2ccccc2)=NN1 (configuration not stated) |  |  |  | > 100 µM |  | > 100 µM |  | 35.4 µM |  | > 100 µM |  | > 100 µM |  | 37.6 µM |  | > 100 µM | 45.5 µM | 77.7 µM |  | 
CC[C@H](C)[C@H](NC(=O)[C@H]1CCCCN1C)C(=O)N(C)[C@H](C[C@@H](OC(C)=O)c1cccc(C(=O)N[C@@H](Cc2ccccc2)C[C@H](C)C(=O)O)n1)C(C)C | 0.0025 µM | 0.0116 µM | 0.000482 µM and 0.0025 µM | 0.0193 µM and 0.00279 µM | 0.00278 µM and 0.0025 µM | > 25 µM | 0.00168 µM |  | 0.00138 µM and 0.0025 µM | > 25 µM | 0.00275 µM and < 0.0025 µM | < 0.0025 µM | 0.00111 µM and < 0.0025 µM | 0.00592 µM and < 0.0025 µM |  |  | > 25 µM | > 25 µM | 0.000816 µM and 0.0025 µM | 0.000529 µM and 0.0025 µM
N#CC1(C#N)C=CC(=C2OCC3CCCN23)C=C1 (configuration not stated) |  |  |  | > 100 µM |  | > 100 µM |  | > 100 µM |  | > 100 µM |  | > 100 µM |  | > 100 µM |  | > 100 µM | > 100 µM |  |  | 
O=C(Nc1ccc(Cl)cc1C(=O)O)c1ccc([N+](=O)[O-])cc1 |  |  |  | 48.7 µM |  | 45.7 µM |  | 40.7 µM |  | > 100 µM |  | 51.1 µM |  | 50.8 µM |  |  | 97.3 µM |  |  | 
CCOC(=N)CC(=O)Nc1ccccc1 |  |  |  | > 46.4 µM |  | > 46.4 µM |  | > 46.4 µM |  | > 100 µM |  | > 100 µM |  | > 100 µM |  | > 100 µM | 22.8 µM | > 69.1 µM |  | 
COc1cc2c(c(OC)c1OC)-c1ccc(SC)c(=O)cc1[C@@H](NC(=O)C(F)(F)F)CC2 |  | > 100 µM |  | 0.138 µM |  |  |  | 0.182 µM |  | > 100 µM |  | < 0.01 µM |  | 0.194 µM |  | 10.3 µM | > 100 µM | > 100 µM |  | 
COCCc1n(Cc2ccc3ccccc3c2)c2ccccc2[n+]1Cc1ccc2ccccc2c1 |  |  | 0.371 µM | 1.36 µM |  |  | 0.379 µM | 1.51 µM |  |  |  |  |  |  |  |  |  |  |  | 
Oc1ccc2ccccc2c1C=NCc1c(O)ccc2ccccc12 |  | > 100 µM |  | > 100 µM |  | > 100 µM |  | > 100 µM |  | > 100 µM |  | > 100 µM |  |  |  | > 100 µM | > 100 µM | > 100 µM |  | 
O=C(CC1C(=O)Nc2ccccc2S1(=O)=O)Nc1ccc(Cl)cc1 (configuration not stated) |  |  |  | 59.1 µM |  | > 100 µM |  | > 100 µM |  | 57.1 µM |  | > 100 µM |  | 42.1 µM |  | 43.5 µM | 29.6 µM | 30.1 µM |  | 
